Reference: US20210330738A1, “ANTIMICROBIAL, BACTERIOPHAGE-DERIVED POLYPEPTIDES AND THEIR USE AGAINST GRAM-NEGATIVE BACTERIA” (CONTRAFECT CORPORATION, priority 2018, published 2021)

Tests used:
[1] = system: P. aeruginosa strain PAO1; experiment: MIC in Mueller-Hinton broth supplemented with 50% human plasma or human serum; format: cell-based, Pseudomonas aeruginosa; details: for Minimal inhibitory concentration, Human Plasma: Mueller-Hinton broth supplemented with 50% human plasma; for Minimal inhibitory concentration, Human Serum: Mueller-Hinton broth supplemented with 50% human serum
[2] = system: mature biofilms formed by P. aeruginosa strain ATCC 17647; experiment: Minimal Biofilm Eradicating Concentration (MBEC), Calgary Biofilm Device, crystal violet; format: cell-based, Pseudomonas aeruginosa; details: P. aeruginosa ATCC 17647 mature biofilm, >95% biofilm biomass removed

Row | Substance | Minimal inhibitory concentration, Human Plasma [1] [µg/mL] | Minimal inhibitory concentration, Human Serum [1] [µg/mL] | MBEC [2] [µg/mL] | MBEC ([2]; listed as T4 lysozyme) [µg/mL]
1 | LL-37 | >64 | >64 | – | –
2 | PGLa | >64 | >64 | – | –
3 | Protegrin 1 | 1 | 4 | – | –
4 | T4 lysozyme [Peptide T4LYZ] | – | – | >64 | > 64
